These are literature values, as cited in patent US7547545B2, “Directed in vitro differentiation of marrow stromal cells into neural cell progenitors” (priority 2001, dated 2009).

One data set deals with prostate tumor cells. The conditions noted are these: Cox et al. 1999.
Data set [1] has as its system medulloblastoma cell line, MCD-1. The conditions noted are these: MCD-1 cells, Moore et al. 1996.
The test system of another data set is C6 glioma cells. The conditions noted are these: Sharma et al. 1987 and Ghosh et al. 1997.

Regarding `CCCC(=O)Nc1ncnc2c1ncn2[C@@H]1O[C@@H]2COP(=O)(O)O[C@H]2[C@H]1OC(=O)CCC` [dbcAMP, dibutyryl cyclic AMP], the neuroendocrine characteristics result in the data set with prostate tumor cells is “induce prostate tumor cells to assume many of the characteristics of neuroendocrine cells”. The extension of processes entry in data set [1] is on record as “greatly increase the extension of processes”. The neural differentiation result with C6 glioma cells is recorded as “induced neural differentiation”. With `CNC[C@H](O)c1ccc(O)c(O)c1` [epinephrine], the neuroendocrine characteristics result in the data set on prostate tumor cells was “induce prostate tumor cells to assume many of the characteristics of neuroendocrine cells”. Take `CC(C)NCC(O)c1ccc(O)c(O)c1` (centres unmarked) [isoproterenol]: the neuroendocrine characteristics result in the data set with prostate tumor cells is “induce prostate tumor cells to assume many of the characteristics of neuroendocrine cells”.
